Patent publication US6589984B1, “Benzofurylpyrone derivatives” (Teijin Limited, priority 1998, dated 2003)

The compounds below were run on Human hepatic cancer cells HepG2 (assay: TG production inhibiting activity (14C-acetic acid incorporation into TG) in HepG2 cells). Conditions: Homo sapiens, HepG2; group criterion, alternatives: IC50 at least 10 μM and less than 100 μM, or at least 5% and less than 30% inhibition at 1 μM, or at least 30% and less than 50% inhibition at 10 μM.
Type: cell-based
Procedure: Human hepatic cancer cells HepG2 were inoculated into a 24-well plate (Costar No. 3524) at 4×10^4 cells/well, and 1 ml of medium (eRDF medium containing 10% bovine serum (Kyokuto Chemical Co.)) was used for 6 day culturing with 5% CO2 at 37° C. After drawing off the supernatant medium, the cells were freshly rinsed with 1 ml of PBS(−) buffer solution (Takara Shuzo) and drawn off. This procedure was repeated twice and then 1 ml of fresh medium (eRDF medium) was added.
6-(benzofuran-2-yl)-3,5-dimethyl-4-hydroxy-2H-pyran-2-one (Example 2) was dissolved in dimethylsulfoxide (DMSO) to prepare a 20 mM sample stock solution. A diluted solution was obtained by diluting the sample solution with DMSO.
To the cells prepared above there were added the sample stock solution or its diluted solution at 5 μl per well and 10 μl of ^14C-acetic acid solution (a solution of Amersham Code No. CFA13 diluted 4.4-fold with PBS(−) buffer), and culturing was carried out for one day with 5% CO2 at 37° C.
After the culturing was completed, the culture solution was removed, and 1 ml of extraction solution (a mixture of n-hexane and isopropyl alcohol at 2:1) was added for extraction treatment on the lipid components in the cells. After the treatment, the extract containing the obtained lipid components was air-dried, the residue was redissolved in 20 μl of a mixed solution of n-hexane and ethyl acetate at 9:1, and the solution was spotted on a thin-layer chromatography plate (S319, Tokyo Kasei) and developed by thin-layer chromatography with the mixed solution mentioned above. After air-drying, the lipid components were colored with iodine vapor, the portion corresponding to TG was cut out, and the amount of TG biosynthesized was measured with a liquid scintillation counter.

Row | SMILES | IC50 [µM]
1 | Cc1c(-c2cc3cc(C=O)ccc3o2)oc(=O)c(C)c1O [Example 7, 3,5-dimethyl-6-(5-formylbenzofuran-2-yl)-4-hydroxy-2H-pyran-2-one] | 10 to 100
2 | CC(=O)Oc1c(C)c(-c2cc3cc(C=O)ccc3o2)oc(=O)c1C [Example 8, 4-acetyloxy-3,5-dimethyl-6-(5-formylbenzofuran-2-yl)-2H-pyran-2-one] | 10 to 100
3 | CC(=O)Oc1c(C)c(-c2cc3ccc(O)cc3o2)oc(=O)c1C [Example 18, 4-acetyloxy-3,5-dimethyl-6-(6-hydroxybenzofuran-2-yl)-2H-pyran-2-one] | 10 to 100
4 | COC(=O)c1ccc2cc(-c3oc(=O)c(C)c(O)c3C)oc2c1 [Example 22, 3,5-dimethyl-4-hydroxy-6-(6-(methoxycarbonyl)benzofuran-2-yl)-2H-pyran-2-one] | 10 to 100
5 | CC(=O)Oc1c(C)c(-c2cc3ccc(N(C)C)cc3o2)oc(=O)c1C [Example 23, 4-acetyloxy-3,5-dimethyl-6-(6-dimethylaminobenzofuran-2-yl)-2H-pyran-2-one] | 10 to 100
6 | CC(=O)Oc1c(C)c(-c2cc3ccc(-c4ccco4)cc3o2)oc(=O)c1C [Example 24, 4-acetyloxy-3,5-dimethyl-6-(6-(2-furyl)benzofuran-2-yl)-2H-pyran-2-one] | 10 to 100
7 | Cc1c(O)cc(-c2cc3ccccc3o2)oc1=O [Example 32, 6-(benzofuran-2-yl)-4-hydroxy-3-methyl-2H -pyran-2-one] | 10 to 100
8 | Cc1c(O)c(-c2ccccc2)c(-c2cc3ccccc3o2)oc1=O [Example 35, 6-(benzofuran-2-yl)-4-hydroxy-3-methyl-5-phenyl-2H-pyran-2-one] | 10 to 100
9 | COc1c(-c2cc3ccccc3o2)oc(=O)c(C)c1O [Example 37, 6-(benzofuran-2-yl)-4-hydroxy-5-methoxy-3-methyl-2H-pyran-2-one] | 10 to 100
10 | Cc1c(-c2cc3ccccc3o2)oc(=O)c(C(C)C)c1O [Example 38, 6-(benzofuran-2-yl)-4-hydroxy-3-isopropyl-5-methyl-2H-pyran-2-one] | 10 to 100
11 | Cc1c(-c2cc3ccccc3o2)oc(=O)c(C)c1OS(=O)(=O)C(F)(F)F [Example 43, 6-(benzofuran-2-yl)-3,5-dimethyl-4-trifluoromethanesulfonyloxy-2H-pyran-2-one] | 10 to 100
12 | CCNc1ccc2oc(-c3oc(=O)c(C)c(O)c3C)cc2c1 [Example 46, 3,5-dimethyl-6-(5-(ethylamino)benzofuran-2-yl)-4-hydroxy-2H-pyran-2-one] | 10 to 100

Same assay, conditions: Homo sapiens, HepG2; group criterion, alternatives: IC50 less than 10 μM, or at least 30% inhibition at 1 μM, or at least 50% inhibition at 10 μM

Row | SMILES | IC50 [µM]
13 | CC(=O)Oc1c(C)c(-c2cc3ccccc3o2)oc(=O)c1C [Example 1, 4-acetyloxy-6-(benzofuran-2-yl)-3,5-dimethyl-2H-pyran-2-one] | < 10
14 | Cc1c(-c2cc3ccccc3o2)oc(=O)c(C)c1OC(=O)c1ccccc1 [Example 3, 6-(benzofuran-2-yl)-4-benzoyloxy-3,5-dimethyl-2H-pyran-2-one] | < 10
15 | Cc1c(-c2cc3ccccc3o2)oc(=O)c(C)c1OS(C)(=O)=O [Example 4, 6-(benzofuran-2-yl)-3,5-dimethyl-4-methanesulfonyloxy-2H-pyran-2-one] | < 10
16 | Cc1c(-c2cc3cc(C=C4SC(=O)NC4=O)ccc3o2)oc(=O)c(C)c1O [Example 9, 3,5-dimethyl-6-(5-((3,5-dioxo-2,4-thiazolidinylidene)methyl)benzofuran-2-yl)-4-hydroxy-2H-pyran-2-one] | < 10
17 | CCCCCc1c(-c2cc3ccccc3o2)oc(=O)c(C)c1O [Example 11, 6-(benzofuran-2-yl)-4-hydroxy-3-methyl-5-n-pentyl-2H-pyran-2-one] | < 10
18 | COc1ccc2oc(-c3oc(=O)c(C)c(O)c3C)cc2c1 [Example 12, 3,5-dimethyl-4-hydroxy-6-(5-methoxybenzofuran-2-yl)-2H-pyran-2-one] | < 10
19 | COc1cccc2cc(-c3oc(=O)c(C)c(O)c3C)oc12 [Example 13, 3,5-dimethyl-4-hydroxy-6-(7-methoxybenzofuran-2-yl)-2H-pyran-2-one] | < 10
20 | CC(=O)Oc1c(C)c(-c2cc3ccc(OS(=O)(=O)C(F)(F)F)cc3o2)oc(=O)c1C [Example 19, 4-acetyloxy-3 ,5-dimethyl-6-(6-(trifluoromethanesulfonyloxy)benzofuran-2-yl)-2H-pyran-2-one] | < 10
21 | CC(=O)Oc1c(C)c(-c2cc3ccc(-c4cccs4)cc3o2)oc(=O)c1C [Example 25, 4-acetyloxy-3,5-dimethyl-6-(6-(2-thienyl)benzofuran-2-yl)-2H-pyran-2-one] | < 10
22 | COc1ccc2cc(-c3oc(=O)c(C)c(O)c3C)oc2c1 [Example 26, 3,5-dimethyl-4-hydroxy-6-(6-methoxybenzofuran-2-yl)-2H-pyran-2-one] | < 10
23 | Cc1c(-c2cc3cc(OCc4cncnc4)ccc3o2)oc(=O)c(C)c1O [Example 27, 3,5-dimethyl-4-hydroxy-6-(5-(5-pyrimidinylmethoxy)benzofuran-2-yl)-2H-pyran-2-one] | < 10
24 | Cc1c(-c2cc3ccccc3o2)oc(=O)c(C)c1OC(=O)c1ccc(CO)cc1 [Example 28, 6-(benzofuran-2-yl)-3,5-dimethyl-4-(4-hydroxymethylbenzoyloxy)-2H-pyran-2-one] | < 10
25 | COc1ccc(C(=O)Oc2c(C)c(-c3cc4ccccc4o3)oc(=O)c2C)cc1 [Example 30, 6-(benzofuran-2-yl)-3,5-dimethyl-4-(4-methoxybenzoyloxy)-2H-pyran-2-one] | < 10
26 | Cc1c(-c2cc3ccccc3o2)oc(=O)c(C)c1OC(=O)Cc1ccccc1 [Example 31, 6-(benzofuran-2-yl)-3,5-dimethyl-4-phenylacetyloxy-2H-pyran-2-one] | < 10
27 | CCc1c(-c2cc3ccccc3o2)oc(=O)c(C)c1O [Example 33, 6-(benzofuran-2-yl)-5-ethyl-4-hydroxy-3-methyl-2H-pyran-2-one] | < 10
28 | Cc1c(O)c(C(C)C)c(-c2cc3ccccc3o2)oc1=O [Example 34, 6-(benzofuran-2-yl)-4-hydroxy-5-isopropyl-3-methyl-2H-pyran-2-one] | < 10
29 | Cc1c(O)c(Cc2ccccc2)c(-c2cc3ccccc3o2)oc1=O [Example 36, 6-(benzofuran-2-yl)-5-benzyl-4-hydroxy-3-methyl-2H-pyran-2-one] | < 10
30 | Cc1c(-c2cc3ccccc3o2)oc(=O)c(C)c1OC(=O)C(C)C [Example 39, 6-(benzofuran-2-yl)-3,5-dimethyl-4-isobutyryloxy-2H-pyran-2-one] | < 10
31 | Cc1c(-c2cc3ccccc3o2)oc(=O)c(C)c1OC(=O)COc1ccccc1 [Example 42, 6-(benzofuran-2-yl)-3,5-dimethyl-4-phenoxyacetyloxy-2H-pyran-2-one] | < 10
32 | Cc1c(-c2cc3cc([N+](=O)[O-])ccc3o2)oc(=O)c(C)c1O [Example 45, 3,5-dimethyl-4-hydroxy-6-(5-nitrobenzofuran-2-yl)-2H-pyran-2-one] | < 10
33 | Cc1c(-c2cc3cc(N(C)C)ccc3o2)oc(=O)c(C)c1O [Example 48, 3,5-dimethyl-6-(5-(dimethylamino)benzofuran-2-yl)-4-hydroxy-2H-pyran-2-one] | < 10
34 | Cc1c(-c2cc3cc(N(Cc4ccccc4)Cc4ccccc4)ccc3o2)oc(=O)c(C)c1O [Example 49, 6-(5-(dibenzylamino)benzofuran-2-yl)-3,5-dimethyl-4-hydroxy-2H-pyran-2-one] | < 10
